What was measured:
Assay in all cases: relative viability (nuclei count vs DMSO), 5 days (fraction); higher = more cells survive
[1] = test system: LCLC-97TM1
In short: (§1)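 Relative viability is defined as nuclei in treated wells over nuclei in vehicle wells. Duplicate plates were run and medians reported. Lung cancer cell lines in 1536-well plates were dosed by pin tool one day after seeding, with one drug or with a fixed anchor-drug dose plus five library-drug doses (not always all listed) in √10 steps, and nuclei were counted after 5 days.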

[2] = test system: 201T
In short: as §1

[3] = test system: NCI-H1666
In short: as §1

[4] = test system: H3255
In short: as §1

[5] = test system: LOU-NH91
In short: as §1

[6] = test system: NCI-H650
In short: as §1

[7] = test system: NCI-H2087
In short: as §1

[8] = test system: NCI-H2085
In short: as §1

[9] = test system: NCI-H1437
In short: as §1

[10] = test system: BEN
In short: as §1

[11] = test system: EPLC-272H
In short: as §1

[12] = test system: EKVX
In short: as §1

[13] = test system: PC-3 [JPC-3]
In short: as §1

[14] = test system: NCI-H647
In short: as §1

[15] = test system: NCI-H1975
In short: as §1

[16] = test system: LU99A
In short: as §1

[17] = test system: COR-L 105
In short: as §1

[18] = test system: HCC-44
In short: as §1

[19] = test system: HCC-827
In short: as §1

[20] = test system: SW 1573
In short: as §1

Nc1ccn([C@@H]2O[C@H](CO)[C@@H](O)[C@@H]2O)c(=O)n1 [Cytarabine] + C[C@]1(O)C[C@@H](c2nc(-c3ccc4ccc(-c5ccccc5)nc4c3)c3c(N)nccn32)C1 [Linsitinib] (partner 1 µM)
relative viability ([1]; first compound 0.005 µM): 0.167
relative viability ([1]; first compound 0.01581 µM): 0.148
relative viability ([1]; first compound 0.05 µM): 0.111
relative viability ([1]; first compound 0.1581 µM): 0.101
relative viability ([1]; first compound 0.5 µM): 0.0967
relative viability ([2]; first compound 0.005 µM): 1.1
relative viability ([2]; first compound 0.01581 µM): 1.02
relative viability ([2]; first compound 0.05 µM): 1.03
relative viability ([2]; first compound 0.1581 µM): 0.9
relative viability ([2]; first compound 0.5 µM): 0.886
relative viability ([3]; first compound 0.005 µM): 0.774
relative viability ([3]; first compound 0.01581 µM): 0.876
relative viability ([3]; first compound 0.05 µM): 0.703
relative viability ([3]; first compound 0.1581 µM): 0.344
relative viability ([3]; first compound 0.5 µM): 0.305
relative viability ([4]; first compound 0.005 µM): 0.945
relative viability ([4]; first compound 0.01581 µM): 0.885
relative viability ([4]; first compound 0.05 µM): 0.808
relative viability ([4]; first compound 0.1581 µM): 0.784
relative viability ([4]; first compound 0.5 µM): 0.674
relative viability ([5]; first compound 0.005 µM): 0.996
relative viability ([5]; first compound 0.01581 µM): 0.904
relative viability ([5]; first compound 0.05 µM): 0.82
relative viability ([5]; first compound 0.1581 µM): 0.54
relative viability ([5]; first compound 0.5 µM): 0.566
relative viability ([6]; first compound 0.005 µM): 0.763
relative viability ([6]; first compound 0.01581 µM): 0.475
relative viability ([6]; first compound 0.05 µM): 0.379
relative viability ([6]; first compound 0.1581 µM): 0.209
relative viability ([6]; first compound 0.5 µM): 0.234
relative viability ([7]; first compound 0.005 µM): 0.958
relative viability ([7]; first compound 0.01581 µM): 1.07
relative viability ([7]; first compound 0.05 µM): 0.827
relative viability ([7]; first compound 0.1581 µM): 0.752
relative viability ([7]; first compound 0.5 µM): 0.623
relative viability ([8]; first compound 0.005 µM): 0.677
relative viability ([8]; first compound 0.01581 µM): 0.89
relative viability ([8]; first compound 0.05 µM): 0.859
relative viability ([8]; first compound 0.1581 µM): 0.585
relative viability ([8]; first compound 0.5 µM): 0.55
relative viability ([9]; first compound 0.005 µM): 0.746
relative viability ([9]; first compound 0.01581 µM): 0.678
relative viability ([9]; first compound 0.05 µM): 0.477
relative viability ([9]; first compound 0.1581 µM): 0.19
relative viability ([9]; first compound 0.5 µM): 0.147
relative viability ([10]; first compound 0.005 µM): 0.616
relative viability ([10]; first compound 0.01581 µM): 0.775
relative viability ([10]; first compound 0.05 µM): 0.557
relative viability ([10]; first compound 0.1581 µM): 0.423
relative viability ([10]; first compound 0.5 µM): 0.307
relative viability ([11]; first compound 0.005 µM): 0.883
relative viability ([11]; first compound 0.01581 µM): 0.834
relative viability ([11]; first compound 0.05 µM): 0.945
relative viability ([11]; first compound 0.1581 µM): 0.522
relative viability ([11]; first compound 0.5 µM): 0.532
relative viability ([12]; first compound 0.005 µM): 0.731
relative viability ([12]; first compound 0.01581 µM): 0.853
relative viability ([12]; first compound 0.05 µM): 0.945
relative viability ([12]; first compound 0.1581 µM): 0.585
relative viability ([12]; first compound 0.5 µM): 0.242
relative viability ([13]; first compound 0.005 µM): 0.889
relative viability ([13]; first compound 0.01581 µM): 0.903
relative viability ([13]; first compound 0.05 µM): 0.866
relative viability ([13]; first compound 0.1581 µM): 0.691
relative viability ([13]; first compound 0.5 µM): 0.65
relative viability ([14]; first compound 0.005 µM): 0.729
relative viability ([14]; first compound 0.01581 µM): 0.55
relative viability ([14]; first compound 0.05 µM): 0.394
relative viability ([14]; first compound 0.1581 µM): 0.148
relative viability ([14]; first compound 0.5 µM): 0.061
relative viability ([15]; first compound 0.005 µM): 0.97
relative viability ([15]; first compound 0.01581 µM): 1.08
relative viability ([15]; first compound 0.05 µM): 0.973
relative viability ([15]; first compound 0.1581 µM): 0.764
relative viability ([15]; first compound 0.5 µM): 0.356
relative viability ([16]; first compound 0.005 µM): 0.621
relative viability ([16]; first compound 0.01581 µM): 0.577
relative viability ([16]; first compound 0.05 µM): 0.561
relative viability ([16]; first compound 0.1581 µM): 0.508
relative viability ([16]; first compound 0.5 µM): 0.47
relative viability ([17]; first compound 0.005 µM): 0.815
relative viability ([17]; first compound 0.01581 µM): 1.1
relative viability ([17]; first compound 0.05 µM): 0.628
relative viability ([17]; first compound 0.1581 µM): 0.443
relative viability ([17]; first compound 0.5 µM): 0.359
relative viability ([18]; first compound 0.005 µM): 0.675
relative viability ([18]; first compound 0.01581 µM): 0.664
relative viability ([18]; first compound 0.05 µM): 0.384
relative viability ([18]; first compound 0.1581 µM): 0.48
relative viability ([18]; first compound 0.5 µM): 0.397
relative viability ([19]; first compound 0.005 µM): 0.631
relative viability ([19]; first compound 0.01581 µM): 0.604
relative viability ([19]; first compound 0.05 µM): 0.488
relative viability ([19]; first compound 0.1581 µM): 0.266
relative viability ([19]; first compound 0.5 µM): 0.262
relative viability ([20]; first compound 0.005 µM): 0.831
relative viability ([20]; first compound 0.01581 µM): 0.664
relative viability ([20]; first compound 0.05 µM): 0.621
relative viability ([20]; first compound 0.1581 µM): 0.369
relative viability ([20]; first compound 0.5 µM): 0.149

Reference: the supplement of paper PMC10307832
